# Values quoted from earlier work in US20060035881A1, “Use of targeted oxidative therapeutic formulation in endodontic treatment” (priority 2004, published 2006).
# Legend:
# [1] = test system: E. coli; settings: increasing concentration of peroxide in rabbit or human blood containing E. coli
# [2] = test system: peroxide-sensitive E. coli; settings: infused into the blood of rabbits infected with peroxide-sensitive E. coli
structure (smiles),measurement,setting,value
"OO [hydrogen peroxide, Hydrogen peroxide]",direct bactericidal activity ex vivo,[1],no evidence of direct bactericidal activity
same,bactericidal effect in vivo,[2],no bactericidal effect
